Laboratory results from the NIST ThermoML archive (doi:10.1021/je2003622).

Experiments:
[1] = mn = molality of the nth substance listed, in mol/kg; details: 101 kPa, Liquid
[2] = wn = mass fraction of the nth substance listed; details: 101 kPa, Liquid

CCCCCCCCCCCCOS(=O)(=O)[O-].[Na+] [sodium dodecyl sulfate] + O
[1]
Details | mass density [kg/m3]
298.15 K, m1 = 0.03036 | 998.33
298.15 K, m1 = 0.04026 | 998.74
298.15 K, m1 = 0.04734 | 999.03
298.15 K, m1 = 0.05935 | 999.5
298.15 K, m1 = 0.0771 | 1000.24
298.15 K, m1 = 0.08753 | 1000.63
298.15 K, m1 = 0.0992 | 1001.07
298.15 K, m1 = 0.1159 | 1001.71
308.15 K, m1 = 0.03046 | 995.13
308.15 K, m1 = 0.0404 | 995.48
308.15 K, m1 = 0.04749 | 995.73
308.15 K, m1 = 0.05955 | 996.13
308.15 K, m1 = 0.07737 | 996.76
308.15 K, m1 = 0.08785 | 997.09
308.15 K, m1 = 0.09957 | 997.46
308.15 K, m1 = 0.1163 | 997.99
318.15 K, m1 = 0.03059 | 991.17
318.15 K, m1 = 0.04056 | 991.47
318.15 K, m1 = 0.04769 | 991.69
318.15 K, m1 = 0.0598 | 992.03
318.15 K, m1 = 0.07771 | 992.57
318.15 K, m1 = 0.08824 | 992.85
318.15 K, m1 = 0.1 | 993.17
318.15 K, m1 = 0.1169 | 993.63
323.15 K, m1 = 0.03066 | 988.91
323.15 K, m1 = 0.04066 | 989.19
323.15 K, m1 = 0.0478 | 989.39
323.15 K, m1 = 0.05995 | 989.71
323.15 K, m1 = 0.0779 | 990.21
323.15 K, m1 = 0.08845 | 990.47
323.15 K, m1 = 0.1003 | 990.76
323.15 K, m1 = 0.1172 | 991.18

CO [methanol] + O
[2]
Details | mass density, 298.15 K [kg/m3] | mass density, 308.15 K [kg/m3] | mass density, 318.15 K [kg/m3] | mass density, 323.15 K [kg/m3] | viscosity, 298.15 K [mPa·s] | viscosity, 308.15 K [mPa·s] | viscosity, 318.15 K [mPa·s] | viscosity, 323.15 K [mPa·s]
w1 = 0.0806 | 982.97 | 979.73 | 976.04 | 974.38 | 1.084 | 0.8665 | 0.7017 | 0.6375
w1 = 0.1647 | 969.63 | 966.32 | 961.62 | 958.75 | 1.311 | 1.022 | 0.8075 | 0.73
w1 = 0.2526 | 956.2 | 951.6 | 946.26 | 943.31 | 1.471 | 1.142 | 0.8957 | 0.8052
w1 = 0.3446 | 939.57 | 933.64 | 931.4 | 928 | 1.448 | 1.203 | 0.9309 | 0.8288
